# In PubChem BioAssay (NCI):
#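 Here, GI50 denotes the concentration required for 50% inhibition of growth. TGI marks complete inhibition of growth.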
# Experiments:
# Test in all cases: NCI tumour cell line growth inhibition, 384-well format
# T-47D breast = tested on: T-47D breast
# RXF 393 renal = tested on: RXF 393 renal
# A549 NSCLC = tested on: A549 NSCLC
# HS 578T breast = tested on: HS 578T breast
# KM12 colon = tested on: KM12 colon
# HOP-62 NSCLC = tested on: HOP-62 NSCLC
# MDA-MB-435 melanoma = tested on: MDA-MB-435 melanoma
# ACHN renal = tested on: ACHN renal
# SNB-19 CNS = tested on: SNB-19 CNS
# HCT-116 colon = tested on: HCT-116 colon
# SF-295 CNS = tested on: SF-295 CNS
# A498 renal = tested on: A498 renal
# SK-OV-3 ovarian = tested on: SK-OV-3 ovarian
# OVCAR-5 ovarian = tested on: OVCAR-5 ovarian
# HOP-92 NSCLC = tested on: HOP-92 NSCLC
# HT29 colon = tested on: HT29 colon
# SNB-75 CNS = tested on: SNB-75 CNS
# 786-0 renal = tested on: 786-0 renal
# EKVX NSCLC = tested on: EKVX NSCLC
# TK-10 renal = tested on: TK-10 renal
# SF-268 CNS = tested on: SF-268 CNS
# OVCAR-8 ovarian = tested on: OVCAR-8 ovarian
# NCI-H322M lung = tested on: NCI-H322M lung
# UACC-62 melanoma = tested on: UACC-62 melanoma
# MCF7 breast = tested on: MCF7 breast
# SN12C renal = tested on: SN12C renal
# BT-549 breast = tested on: BT-549 breast
# MDA-MB-468 breast = tested on: MDA-MB-468 breast
# U251 glioblastoma = tested on: U251 glioblastoma
# IGROV1 ovarian = tested on: IGROV1 ovarian
# PC-3 prostate = tested on: PC-3 prostate
# HCT-15 colon = tested on: HCT-15 colon
# SW-620 colon = tested on: SW-620 colon
# CAKI-1 renal = tested on: CAKI-1 renal
# NCI-H460 NSCLC = tested on: NCI-H460 NSCLC
# LOX IMVI melanoma = tested on: LOX IMVI melanoma
# SK-MEL-5 melanoma = tested on: SK-MEL-5 melanoma
# OVCAR-3 ovarian = tested on: OVCAR-3 ovarian
# NCI-H522 lung = tested on: NCI-H522 lung
# HCC-2998 colon = tested on: HCC-2998 colon
# RPMI-8226 leukemia = tested on: RPMI-8226 leukemia
# K-562 leukemia = tested on: K-562 leukemia
# UACC-257 melanoma = tested on: UACC-257 melanoma
# MDA-MB-231 breast = tested on: MDA-MB-231 breast
# COLO 205 colon = tested on: COLO 205 colon
# NCI-H23 lung = tested on: NCI-H23 lung
# MOLT-4 leukemia = tested on: MOLT-4 leukemia
# DU-145 prostate = tested on: DU-145 prostate
# SF-539 CNS = tested on: SF-539 CNS
# HL-60(TB) leukemia = tested on: HL-60(TB) leukemia
# CCRF-CEM leukemia = tested on: CCRF-CEM leukemia
# NCI-H226 lung = tested on: NCI-H226 lung
# UO-31 renal = tested on: UO-31 renal
# NCI/ADR-RES ovarian = tested on: NCI/ADR-RES ovarian
# SK-MEL-28 melanoma = tested on: SK-MEL-28 melanoma
# OVCAR-4 ovarian = tested on: OVCAR-4 ovarian
# M14 melanoma = tested on: M14 melanoma
smiles,measurement,setting,value
C[C@H](O)C(=O)N1CCC(CCn2c(Sc3cc4c(cc3Br)OCO4)nc3c(N)ncnc32)CC1,GI50,T-47D breast,0.344 µM
same,TGI,T-47D breast,1.5 µM
same,GI50,RXF 393 renal,0.346 µM
same,TGI,RXF 393 renal,26 µM
same,GI50,A549 NSCLC,0.318 µM
same,TGI,A549 NSCLC,> 100 µM
same,GI50,HS 578T breast,0.327 µM
same,TGI,HS 578T breast,2.22 µM
same,GI50,KM12 colon,0.318 µM
same,TGI,KM12 colon,10.9 µM
same,GI50,HOP-62 NSCLC,0.582 µM
same,TGI,HOP-62 NSCLC,27.8 µM
same,GI50,MDA-MB-435 melanoma,1.27 µM
same,TGI,MDA-MB-435 melanoma,> 100 µM
same,GI50,ACHN renal,0.574 µM
same,TGI,ACHN renal,> 100 µM
same,GI50,SNB-19 CNS,0.694 µM
same,TGI,SNB-19 CNS,> 100 µM
same,GI50,HCT-116 colon,0.518 µM
same,TGI,HCT-116 colon,> 100 µM
same,GI50,SF-295 CNS,0.433 µM
same,TGI,SF-295 CNS,1.7 µM
same,GI50,A498 renal,0.901 µM
same,TGI,A498 renal,> 100 µM
same,GI50,SK-OV-3 ovarian,0.827 µM
same,TGI,SK-OV-3 ovarian,76.6 µM
same,GI50,OVCAR-5 ovarian,0.723 µM
same,TGI,OVCAR-5 ovarian,> 100 µM
same,GI50,HOP-92 NSCLC,0.624 µM
same,TGI,HOP-92 NSCLC,2.37 µM
same,GI50,HT29 colon,0.337 µM
same,TGI,HT29 colon,20.3 µM
same,GI50,SNB-75 CNS,1.49 µM
same,TGI,SNB-75 CNS,7.22 µM
same,GI50,786-0 renal,0.607 µM
same,TGI,786-0 renal,> 100 µM
same,GI50,EKVX NSCLC,0.649 µM
same,TGI,EKVX NSCLC,25.1 µM
same,GI50,TK-10 renal,0.522 µM
same,TGI,TK-10 renal,23.3 µM
same,GI50,SF-268 CNS,0.174 µM
same,TGI,SF-268 CNS,0.494 µM
same,GI50,OVCAR-8 ovarian,0.272 µM
same,TGI,OVCAR-8 ovarian,0.707 µM
same,GI50,NCI-H322M lung,0.593 µM
same,TGI,NCI-H322M lung,58.1 µM
same,GI50,UACC-62 melanoma,0.534 µM
same,TGI,UACC-62 melanoma,3.07 µM
same,GI50,MCF7 breast,0.286 µM
same,TGI,MCF7 breast,2.81 µM
same,GI50,SN12C renal,0.333 µM
same,TGI,SN12C renal,1.84 µM
same,GI50,BT-549 breast,0.41 µM
same,TGI,BT-549 breast,2.82 µM
same,GI50,MDA-MB-468 breast,0.294 µM
same,TGI,MDA-MB-468 breast,0.743 µM
same,GI50,U251 glioblastoma,0.395 µM
same,TGI,U251 glioblastoma,1.45 µM
same,GI50,IGROV1 ovarian,0.299 µM
same,TGI,IGROV1 ovarian,1.74 µM
same,GI50,PC-3 prostate,0.655 µM
same,TGI,PC-3 prostate,4.01 µM
same,GI50,HCT-15 colon,0.757 µM
same,TGI,HCT-15 colon,15.6 µM
same,GI50,SW-620 colon,0.303 µM
same,TGI,SW-620 colon,2.55 µM
same,GI50,CAKI-1 renal,0.657 µM
same,TGI,CAKI-1 renal,88.8 µM
same,GI50,NCI-H460 NSCLC,0.275 µM
same,TGI,NCI-H460 NSCLC,0.745 µM
same,GI50,LOX IMVI melanoma,0.327 µM
same,TGI,LOX IMVI melanoma,1.07 µM
same,GI50,SK-MEL-5 melanoma,0.335 µM
same,TGI,SK-MEL-5 melanoma,19.6 µM
same,GI50,OVCAR-3 ovarian,0.405 µM
same,TGI,OVCAR-3 ovarian,3.27 µM
same,GI50,NCI-H522 lung,0.203 µM
same,TGI,NCI-H522 lung,0.41 µM
same,GI50,HCC-2998 colon,0.127 µM
same,TGI,HCC-2998 colon,0.478 µM
same,GI50,RPMI-8226 leukemia,0.472 µM
same,TGI,RPMI-8226 leukemia,2.53 µM
same,GI50,K-562 leukemia,0.271 µM
same,TGI,K-562 leukemia,4.7 µM
same,GI50,UACC-257 melanoma,4.38 µM
same,TGI,UACC-257 melanoma,31 µM
same,GI50,MDA-MB-231 breast,0.537 µM
same,TGI,MDA-MB-231 breast,7.36 µM
same,GI50,COLO 205 colon,0.291 µM
same,TGI,COLO 205 colon,1.84 µM
same,GI50,NCI-H23 lung,0.214 µM
same,TGI,NCI-H23 lung,0.64 µM
same,GI50,MOLT-4 leukemia,0.122 µM
same,TGI,MOLT-4 leukemia,0.268 µM
same,GI50,DU-145 prostate,0.42 µM
same,TGI,DU-145 prostate,13.8 µM
same,GI50,SF-539 CNS,0.223 µM
same,TGI,SF-539 CNS,0.442 µM
same,GI50,HL-60(TB) leukemia,0.248 µM
same,TGI,HL-60(TB) leukemia,0.523 µM
same,GI50,CCRF-CEM leukemia,0.229 µM
same,TGI,CCRF-CEM leukemia,0.783 µM
same,GI50,NCI-H226 lung,0.568 µM
same,TGI,NCI-H226 lung,7.66 µM
same,GI50,UO-31 renal,0.68 µM
same,TGI,UO-31 renal,58.8 µM
same,GI50,NCI/ADR-RES ovarian,9.82 µM
same,TGI,NCI/ADR-RES ovarian,35.5 µM
same,GI50,SK-MEL-28 melanoma,0.589 µM
same,TGI,SK-MEL-28 melanoma,31.2 µM
same,GI50,OVCAR-4 ovarian,17.3 µM
same,TGI,OVCAR-4 ovarian,> 100 µM
same,GI50,M14 melanoma,0.361 µM
same,TGI,M14 melanoma,11.8 µM
